Source: patent publication EP4692059A1, “CATIONIC LIPID HAVING DISULFIDE BOND” (Tohoku University, priority 2023, dated 2024)

How the values were obtained:
[1] = Measurement of Liposomal pKa (TNS fluorescence, LNP without nucleic acid); conditions: cationic lipid:DOPC:Chol = 52.5:7.5:40 (molar ratio) + DMG-PEG2k about 1.5 mol, pH at which the relative fluorescence intensity was 50%
Procedure: Lipid nano particles (LNP) without containing nucleic acid were used for the evaluation of Liposomal pKa.
To the obtained mixture was further added DMG-PEG2k (2 mM ethanol solution) in an amount of about 1.5 mol with respect to the total amount 100 mol of cationic lipid, DOPC, and Chol, and then ethanol was added to prepare an ethanol solution of the lipid (total amount: 360 µL).
An acidic malic acid buffer (20 mM, pH 3.0) (1080 µL) containing NaCl at a final concentration of 30 mM and an ethanol solution (360 µL) of lipid were each weighed in a syringe. Using an ultra high-speed nanomedicament producing apparatus NanoAssmblr (manufactured by Precision NanoSystems), LNP was prepared under the conditions of addition rate of acidic buffer solution: 3 mL/min, addition rate of ethanol solution of lipid: 1 mL/min, and syringe holder temperature: 25°C, and collected in a 15 mL tube. […]
20 mM Citrate buffer, sodium phosphate buffer, and tris HCl buffer, each containing NaCl at a final concentration of 150 mM and adjusted to various pHs within the range of pH 3.0 to 10.0, were prepared. […] The relative fluorescence intensity was calculated as a percentage, with the maximum value of the fluorescence intensity in each LNP being 100% and the minimum value being 0%.

liver = assay: In vivo gene expression, luciferase luminescence in the liver after tail vein administration (Experimental Example 7); conditions: BALB/c mouse, mRNA 0.05 mg/kg
Procedure: LNP encapsulating mRNA that expresses luciferase (cationic lipid:DOPC:Chol:DMG-PEG2k = 52.5:7.5:40:1.5 (molar ratio)) was prepared by the method described in [Experimental Example 6], 1.
The prepared each mRNA-encapsulating LNP dispersion was administered from the tail vein of BALB/c mouse (male, 5-week-old). The dose of mRNA was set to 0.05 mg per 1 kg body weight of the mouse, and the dose of the mRNA-encapsulating LNP dispersion was set to 10 µL per 1 g body weight of the mouse. After 4.5 hr from the administration of the mRNA-encapsulating LNP dispersion, a PBS solution of D-luciferin potassium was administered into the abdominal cavity of the mouse. The dose of D-luciferin potassium was set to 3 mg per mouse, and the dose of the PBS solution of D-luciferin potassium was set to 200 µL per mouse. After 15 min from the administration of the PBS solution of D-luciferin potassium, the mouse was euthanized, and the liver was isolated. The luminescence in the liver was quantified using an in vivo imaging system (IVIS) with an exposure of 10 sec. The amount of luminescence in the liver was quantified by image analysis using Live Imaging software attached to IVIS. The amount of luminescence (photons/sec) was calculated from the acquired image and used as an index of gene expression activity. The cationic lipids used, the luminescence intensity in the liver, and the relative luminescence intensity (= luminescence intensity in the liver when cationic lipid of Example was used/luminescence intensity in the liver when cationic lipid of Comparative Example was used) are shown in Table 9. For example, "3.94E+09" means "3.94×10^9". […]

mouse red blood cells [2] = assay: Hemolysis activity (membrane fusion ability) at pH 7.4 and 5.5 (Experimental Example 8); format: cell-based, ICR mice; conditions: physiological pH (7.4); final lipid concentration 100 µM; Fig. 3
Procedure: LNP encapsulating mRNA that expresses luciferase (cationic lipid:DOPC:Chol:DMG-PEG2k = 52.5:7.5:40:1.5 (molar ratio)) was prepared by the method described in […], 1. As cationic lipid, the cationic lipid of Comparative Example, compound 94, compound 112, compound 162, compound 181, or compound 194 was used.
(§1) The collected blood was immediately mixed with 1.0 µL of heparin solution (5000 U/5 mL). About 9 mL of PBS was added to the blood to make the total volume 10 mL. The mixture was then mixed by inversion and centrifuged (4°C, 400 g, 10 min). The supernatant containing plasma components was removed using a Pasteur pipette. About 9 mL of PBS was added to the blood cell components to make the total volume 10 mL, and the mixture was centrifuged again. A similar washing procedure was repeated 4 times to obtain mouse red blood cells.
(§2) 2, 4, 6, 8, and 10 µL of mouse red blood cells were weighed and diluted with PBS containing 1 w/v% Triton-X100. The entire diluted solution was transferred to a clear 96-well plate, and the absorbance at 545 nm was measured using a plate reader. A calibration curve was created using these samples, and the point where the absorbance reached 1 was determined as the amount of blood cells to be used in the hemolysis assay. Empty LNP solution was weighed into an Eppendorf tube and diluted with malic acid-PBS buffer (pH 5.5, pH 7.4), followed by addition of mouse red blood cells. The final lipid concentration was 100 µM at pH 7.4 and 33.3 µM at pH 5.5, and the final volume of the solution was 250 µL. Each tube was shaken at 1900 rpm for 15 min. Each sample was centrifuged under centrifugation conditions (4°C, 400 g, 5 min), and 100 µL of the supernatant was transferred to a clear 96-well plate and the absorbance at 545 nm was measured. Untreated red blood cells were used as the negative control. 1 w/v% Triton-X was used as the positive control. The hemolysis activity of each sample was calculated using the following formula: Hemolysis activity (%) = 100×(absorbance of each sample - absorbance of negative control)/(absorbance of positive control - absorbance of negative control).

mouse red blood cells [3] = assay: Hemolysis activity (membrane fusion ability) at pH 7.4 and 5.5 (Experimental Example 5); format: cell-based, ICR mice; conditions: physiological pH (7.4); final lipid concentration 100 µM; Fig. 1
Procedure: LNPs encapsulating mRNA that expresses luciferase (cationic lipid:DOPC:Chol:DMG-PEG2k=52.5:7.5:40:1.5 (molar ratio)) were prepared using the method described in [Experimental Example 2] 1. As cationic lipid, the cationic lipid of Comparative Example, compound 9, compound 14, compound 27, compound 33, or compound 42 was used.
as §1
as §2, with “1 w/v% Triton-X was used as the positive control.” left out

HeLa cells = assay: In vitro gene expression in HeLa cells (luciferase mRNA-encapsulating LNP, cumulative luminescence in 24 hr)
Procedure: LNP encapsulating mRNA that expresses luciferase (cationic lipid:DOPC:Chol:DMG-PEG2k = 50:10:40:1 (molar ratio)) was prepared by the method described in [Experimental Example 2], 1.
HeLa cells, which are human cervical cancer cells, were seeded in a 3.5 cm dish at 5.0×10^4 cells/2 mL/Dish 24 hours before transfection. After 24 hr, the medium was changed to a culture medium (D-MEM) containing 0.1 mM D-luciferin. The prepared mRNA-encapsulating LNP was diluted with PBS to an mRNA concentration of about 1 µg/mL. The diluted mRNA-encapsulating LNP solution (about 200 µL, mRNA: 0.2 µg) was added to a 3.5 cm dish, and set in an incubator luminometer KronosDio. The luminescence intensity of luciferase was measured for 2 min every one hour. The cumulative luciferase luminescence intensity in 24 hr was calculated from the obtained time change of expression. […] In Comparative Example, the cationic lipid described in Table 2 was used.

[4] = Particle size, PdI and zeta potential of mRNA-encapsulating LNPs by dynamic light scattering (Experimental Example 6); format: physicochemical; conditions: mRNA-encapsulating LNP
Procedure: An acidic buffer solution (total amount: 1300 µL) of nucleic acid was prepared by weighing 6.5 µg of mRNA solution (0.6 mg/mL) in a 5 mL tube and adding acidic citrate buffer (20 mM, pH 5.0).
An acidic buffer solution of nucleic acid and an ethanol solution of lipid were each weighed in a syringe. […] The obtained concentrate was diluted with TBS to a lipid concentration of 2 mM to give a dispersion containing LNP.
The particle size, PdI (Polydispersity Index), and zeta potential of the mRNA-encapsulating LNP prepared by the method of the above-mentioned 1 were measured by a dynamic light scattering method (Zetasizer Nano; Malvern). […]

[5] = cationic lipid:DOPC:Chol=49:7.5:42.5:1, dispersion in TBS, dynamic light scattering (Tables 8-1, 8-2)

Liposomal pKa [1]: 6.50
zeta potential (mV) ([4]; cationic lipid:DOPC:Chol=49:7.5:42.5:1, dispersion in TBS (Tables 8-1, 8-2)): -2.68 mV
PdI [4, 5]: 0.075
particle size (nm) [4, 5]: 123.80 nm
Structure (SMILES): CCCCCCCC/C=C\CCCCCCCC(=O)Oc1ccc(CC(=O)OCCC2CCN(CCSSCCN3CCC(CCOC(=O)Cc4ccc(OC(=O)CCCCCCC/C=C\CCCCCCCC)cc4)CC3)CC2)cc1 [Comparative Example, reference compound]
amount of luminescence (photons/sec) in liver (liver; tail vein, 4.5 hr after administration, LNP cationic lipid:DOPC:Chol:DMG-PEG2k = 52.5:7.5:40:1.5, prepared as in Experimental Example 6): 2.05E+09 photons/sec
relative amount of luminescence (liver; liver luminescence relative to cationic lipid of Comparative Example): 1.00
hemolysis activity (mouse red blood cells [2]): none
hemolysis activity (mouse red blood cells [3]): did not exhibit hemolysis activity
cumulative luciferase luminescence intensity (RLU) in 24 hr (HeLa cells; LNP cationic lipid:DOPC:Chol:DMG-PEG2k = 50:10:40:1, mRNA 0.2 µg per dish, E+0a means 10^a): 1.85E+07 RLU
relative luminescence intensity (HeLa cells; cumulative intensity in 24 hr relative to cationic lipid of Comparative Example): 1.00
